Results: BindingDB's records for doi:10.1016/j.bmcl.2017.08.049 (Renmin Hospital of Wuhan University, 2018)

Experiment: Inhibition of HIV1 3B gp41-induced cell-cell fusion between viral protein expressing human H9 cells and MT-2 target cells assessed as number of syncytia formation treated for 2 hrs measured after 6 hrs

| SMILES | IC50 [µM] |
| --- | --- |
| Cc1cc2c(c(O)c1-c1c(C)cc3c(c1O)/C(=C/NC(C)C(=O)NC(C)C(=O)O)C(=O)C(O)=C3C(C)C)/C(=C/NC(C)C(=O)NC(C)C(=O)O)C(=O)C(O)=C2C(C)C (configuration not stated) | 7.14 |
| Cc1cc2c(c(O)c1-c1c(C)cc3c(c1O)/C(=C/NC(C)S(=O)(=O)O)C(=O)C(O)=C3C(C)C)/C(=C/NC(C)S(=O)(=O)O)C(=O)C(O)=C2C(C)C (configuration not stated) | 6.67 |
